Source: patent US20090182057A1, “DEUTERATED AMINOGLYCIDAL COMPOUNDS” (AUSPEX PHARMACEUTICALS, INC., priority 2006, published 2009)

Settings: topical or ocular, 5 microgram per mL
Description: In Vitro Liver Microsomal Stability Assay
Liver microsomal stability assays are conducted at 1 mg per mL liver microsome protein with an NADPH-generating system in 2% NaHCO3 (2.2 mM NADPH, 25.6 mM glucose 6-phosphate, 6 units per mL glucose 6-phosphate dehydrogenase and 3.3 mM MgCl2). Test compounds are prepared as solutions in 20% acetonitrile-water, and added to the assay mixture (final assay concentration 5 microgram per mL) and incubated at 37° C. Final concentration of acetonitrile in the assay should be <1%. Aliquots (50 μL) are taken out at times 0, 15, 30, 45, and 60 min, and diluted with ice cold acetonitrile (200 μL) to stop the reactions. Samples are centrifuged at 12,000 RPM for 10 min to precipitate proteins. Supernatants are transferred to microcentrifuge tubes and stored for LC/MS/MS analysis of the degradation half-life of the test compounds.

| increase in the degradation half-life as compared to non-isotopically enriched metoprolol | SMILES |
| --- | --- |
| 10-30% | [2H]C([2H])(Cc1ccc(OCC(O)CNC(C)C)cc1)OC (stereo not shown) [d2-metoprolol, d2-1-Isopropylamino-3-[4-(2-methoxy-ethyl)-phenoxy]-propan-2-ol] |
| 10-30% | [2H]C([2H])([2H])OCCc1ccc(OCC(O)CNC(C)C)cc1 (stereo not shown) [d3-metoprolol, d3-1-Isopropylamino-3-[4-(2-methoxy-ethyl)-phenoxy]-propan-2-ol] |
| 10-30% | [2H]C([2H])([2H])OC([2H])([2H])Cc1ccc(OC([2H])([2H])C([2H])(O)C([2H])([2H])NC(C([2H])([2H])[2H])C([2H])([2H])[2H])cc1 (stereo not shown) [d16-metoprolol, d16-1-Isopropylamino-3-[4-(2-methoxy-ethyl)-phenoxy]-propan-2-ol] |
| 10-30% | [2H]C([2H])([2H])OC([2H])([2H])Cc1ccc(OCC(O)CNC(C)C)cc1 (stereo not shown) [d5-metoprolol, d5-1-Isopropylamino-3-[4-(2-methoxy-ethyl)-phenoxy]-propan-2-ol] |
